Numbers after ± are expanded uncertainties.
Assays:
[1] = xn = mol fraction of the nth substance listed; details: 318.15 K, 101 kPa, Liquid
[2] = excess molar enthalpy (molar enthalpy of mixing); xn = mol fraction of the nth substance listed; details: 318.15 K, 101 kPa, Liquid
[3] = 318.15 K; 101.33 kPa; Liquid
[4] = refractive index (Na D-line) (dimensionless); details: 318.15 K; 101.33 kPa; Liquid; Standard Abbe refractometry

With `CCCCCCCCCCCCC` [tridecane] + CCCOC(=O)CC the excess molar volume ([1]; x2 = 0.1068) was 3.54e-07 ± 1.7e-08 m3/mol, the excess molar volume ([1]; x2 = 0.2003) was 6.1e-07 ± 1.8e-08 m3/mol and the excess molar volume ([1]; x2 = 0.2831) was 7.8e-07 ± 1.9e-08 m3/mol. It also gave an excess molar volume ([1]; x2 = 0.3626) of 8.99e-07 ± 2e-08 m3/mol, an excess molar volume ([1]; x2 = 0.4343) of 9.83e-07 ± 2e-08 m3/mol and an excess molar volume ([1]; x2 = 0.4988) of 1.001e-06 ± 2e-08 m3/mol. It also gave an excess molar volume ([1]; x2 = 0.5633) of 1.013e-06 ± 2e-08 m3/mol, an excess molar volume ([1]; x2 = 0.6197) of 9.68e-07 ± 2e-08 m3/mol and an excess molar volume ([1]; x2 = 0.6738) of 9.29e-07 ± 2e-08 m3/mol. The excess molar volume ([1]; x2 = 0.7241) was 8.44e-07 ± 1.9e-08 m3/mol, the excess molar volume ([1]; x2 = 0.7705) was 7.66e-07 ± 1.9e-08 m3/mol and the excess molar volume ([1]; x2 = 0.8135) was 6.6e-07 ± 1.9e-08 m3/mol. For the same compound, the excess molar volume ([1]; x2 = 0.8558) was 5.36e-07 ± 1.8e-08 m3/mol, the excess molar volume ([1]; x2 = 0.8941) was 4.18e-07 ± 1.7e-08 m3/mol and the excess molar volume ([1]; x2 = 0.9306) was 2.67e-07 ± 1.7e-08 m3/mol. For the same compound, the excess molar volume ([1]; x2 = 0.9641) was 1.43e-07 ± 1.6e-08 m3/mol, the excess molar enthalpy ([2]; x2 = 0.0771) was 0.0824 ± 0.00167 kcal/mol and the excess molar enthalpy ([2]; x2 = 0.1623) was 0.154 ± 0.00287 kcal/mol. The excess molar enthalpy ([2]; x2 = 0.248) was 0.217 ± 0.00382 kcal/mol, the excess molar enthalpy ([2]; x2 = 0.3288) was 0.264 ± 0.00454 kcal/mol and the excess molar enthalpy ([2]; x2 = 0.4032) was 0.294 ± 0.00502 kcal/mol. For the same compound, the excess molar enthalpy ([2]; x2 = 0.471) was 0.31 ± 0.00526 kcal/mol, the excess molar enthalpy ([2]; x2 = 0.5295) was 0.315 ± 0.00526 kcal/mol and the excess molar enthalpy ([2]; x2 = 0.5719) was 0.311 ± 0.00526 kcal/mol. It also gave an excess molar enthalpy ([2]; x2 = 0.5818) of 0.308 ± 0.00502 kcal/mol, an excess molar enthalpy ([2]; x2 = 0.6224) of 0.298 ± 0.00502 kcal/mol and an excess molar enthalpy ([2]; x2 = 0.6662) of 0.283 ± 0.00478 kcal/mol. It also gave an excess molar enthalpy ([2]; x2 = 0.7127) of 0.261 ± 0.0043 kcal/mol, an excess molar enthalpy ([2]; x2 = 0.7593) of 0.232 ± 0.00406 kcal/mol and an excess molar enthalpy ([2]; x2 = 0.8089) of 0.199 ± 0.00359 kcal/mol. It also gave an excess molar enthalpy ([2]; x2 = 0.8585) of 0.161 ± 0.00287 kcal/mol, an excess molar enthalpy ([2]; x2 = 0.9084) of 0.114 ± 0.00217 kcal/mol and an excess molar enthalpy ([2]; x2 = 0.9562) of 0.0607 ± 0.00139 kcal/mol.
In the case of `CCOC(=O)CC` [ethyl propanoate], the mass density [3] is reported as 860.98 ± 0.99 kg/m3 and the refractive index [4] is reported as 1.3711 ± 0.0008.
Compound `CCOC(=O)CC` [ethyl propanoate] + CCCCCCC has an excess molar volume ([1]; x1 = 0.0401) of 1.58e-07 ± 1.6e-08 m3/mol, an excess molar volume ([1]; x1 = 0.0797) of 3.09e-07 ± 1.7e-08 m3/mol and an excess molar volume ([1]; x1 = 0.1474) of 5.09e-07 ± 1.8e-08 m3/mol. The excess molar volume ([1]; x1 = 0.2182) was 6.76e-07 ± 1.9e-08 m3/mol, the excess molar volume ([1]; x1 = 0.2873) was 7.86e-07 ± 1.9e-08 m3/mol and the excess molar volume ([1]; x1 = 0.3497) was 8.53e-07 ± 1.9e-08 m3/mol. For the same compound, the excess molar volume ([1]; x1 = 0.4098) was 8.95e-07 ± 2e-08 m3/mol, the excess molar volume ([1]; x1 = 0.5276) was 8.77e-07 ± 2e-08 m3/mol and the excess molar volume ([1]; x1 = 0.5897) was 8.41e-07 ± 1.9e-08 m3/mol. For the same compound, the excess molar volume ([1]; x1 = 0.6453) was 7.71e-07 ± 1.9e-08 m3/mol, the excess molar volume ([1]; x1 = 0.701) was 7.23e-07 ± 1.9e-08 m3/mol and the excess molar volume ([1]; x1 = 0.7534) was 6.41e-07 ± 1.8e-08 m3/mol. The excess molar volume ([1]; x1 = 0.808) was 5.27e-07 ± 1.8e-08 m3/mol, the excess molar volume ([1]; x1 = 0.8554) was 4.12e-07 ± 1.7e-08 m3/mol and the excess molar volume ([1]; x1 = 0.9045) was 2.9e-07 ± 1.7e-08 m3/mol. For the same compound, the excess molar volume ([1]; x1 = 0.9534) was 1.5e-07 ± 1.6e-08 m3/mol, the excess molar enthalpy ([2]; x1 = 0.0724) was 0.0766 ± 0.0016 kcal/mol and the excess molar enthalpy ([2]; x1 = 0.1469) was 0.142 ± 0.00263 kcal/mol. The excess molar enthalpy ([2]; x1 = 0.2238) was 0.196 ± 0.00335 kcal/mol, the excess molar enthalpy ([2]; x1 = 0.294) was 0.234 ± 0.00406 kcal/mol and the excess molar enthalpy ([2]; x1 = 0.3653) was 0.261 ± 0.0043 kcal/mol. It also gave an excess molar enthalpy ([2]; x1 = 0.4286) of 0.273 ± 0.00454 kcal/mol, an excess molar enthalpy ([2]; x1 = 0.4855) of 0.277 ± 0.00454 kcal/mol and an excess molar enthalpy ([2]; x1 = 0.5345) of 0.274 ± 0.00454 kcal/mol. For the same compound, the excess molar enthalpy ([2]; x1 = 0.5733) was 0.267 ± 0.00454 kcal/mol, the excess molar enthalpy ([2]; x1 = 0.5847) was 0.264 ± 0.00454 kcal/mol and the excess molar enthalpy ([2]; x1 = 0.6302) was 0.254 ± 0.0043 kcal/mol. It also gave an excess molar enthalpy ([2]; x1 = 0.682) of 0.237 ± 0.00406 kcal/mol, an excess molar enthalpy ([2]; x1 = 0.7393) of 0.213 ± 0.00359 kcal/mol and an excess molar enthalpy ([2]; x1 = 0.7978) of 0.181 ± 0.00311 kcal/mol. The excess molar enthalpy ([2]; x1 = 0.8563) was 0.142 ± 0.00263 kcal/mol, the excess molar enthalpy ([2]; x1 = 0.9088) was 0.0966 ± 0.00191 kcal/mol and the excess molar enthalpy ([2]; x1 = 0.963) was 0.0455 ± 0.00115 kcal/mol.
With `CCCCCCCCCCCCCCC` [pentadecane] + CCCOC(=O)CC the excess molar volume ([1]; x2 = 0.0571) was 1.92e-07 ± 1.6e-08 m3/mol, the excess molar volume ([1]; x2 = 0.121) was 3.65e-07 ± 1.7e-08 m3/mol and the excess molar volume ([1]; x2 = 0.2189) was 6.37e-07 ± 1.8e-08 m3/mol. It also gave an excess molar volume ([1]; x2 = 0.3124) of 8.36e-07 ± 1.9e-08 m3/mol, an excess molar volume ([1]; x2 = 0.3919) of 9.5e-07 ± 2e-08 m3/mol and an excess molar volume ([1]; x2 = 0.4644) of 1.011e-06 ± 2e-08 m3/mol. It also gave an excess molar volume ([1]; x2 = 0.5327) of 1.042e-06 ± 2e-08 m3/mol, an excess molar volume ([1]; x2 = 0.5945) of 1.032e-06 ± 2e-08 m3/mol and an excess molar volume ([1]; x2 = 0.6507) of 9.93e-07 ± 2e-08 m3/mol. The excess molar volume ([1]; x2 = 0.7004) was 9.51e-07 ± 2e-08 m3/mol, the excess molar volume ([1]; x2 = 0.7486) was 8.75e-07 ± 2e-08 m3/mol and the excess molar volume ([1]; x2 = 0.7919) was 7.84e-07 ± 1.9e-08 m3/mol. It also gave an excess molar volume ([1]; x2 = 0.8316) of 6.85e-07 ± 1.9e-08 m3/mol, an excess molar volume ([1]; x2 = 0.8692) of 5.77e-07 ± 1.8e-08 m3/mol and an excess molar volume ([1]; x2 = 0.9037) of 4.49e-07 ± 1.8e-08 m3/mol. For the same compound, the excess molar volume ([1]; x2 = 0.9384) was 3.2e-07 ± 1.7e-08 m3/mol, the excess molar volume ([1]; x2 = 0.9689) was 1.72e-07 ± 1.6e-08 m3/mol and the excess molar enthalpy ([2]; x2 = 0.0908) was 0.0969 ± 0.00191 kcal/mol. The excess molar enthalpy ([2]; x2 = 0.2077) was 0.193 ± 0.00335 kcal/mol, the excess molar enthalpy ([2]; x2 = 0.3159) was 0.265 ± 0.00454 kcal/mol and the excess molar enthalpy ([2]; x2 = 0.4097) was 0.309 ± 0.00526 kcal/mol. It also gave an excess molar enthalpy ([2]; x2 = 0.481) of 0.33 ± 0.0055 kcal/mol, an excess molar enthalpy ([2]; x2 = 0.538) of 0.336 ± 0.0055 kcal/mol and an excess molar enthalpy ([2]; x2 = 0.5826) of 0.333 ± 0.0055 kcal/mol. The excess molar enthalpy ([2]; x2 = 0.6208) was 0.327 ± 0.0055 kcal/mol, the excess molar enthalpy ([2]; x2 = 0.6333) was 0.322 ± 0.00526 kcal/mol and the excess molar enthalpy ([2]; x2 = 0.6724) was 0.307 ± 0.00502 kcal/mol. It also gave an excess molar enthalpy ([2]; x2 = 0.7191) of 0.284 ± 0.00478 kcal/mol, an excess molar enthalpy ([2]; x2 = 0.7668) of 0.255 ± 0.0043 kcal/mol and an excess molar enthalpy ([2]; x2 = 0.8087) of 0.224 ± 0.00382 kcal/mol. The excess molar enthalpy ([2]; x2 = 0.8594) was 0.181 ± 0.00311 kcal/mol, the excess molar enthalpy ([2]; x2 = 0.9086) was 0.128 ± 0.00239 kcal/mol and the excess molar enthalpy ([2]; x2 = 0.96) was 0.0654 ± 0.00146 kcal/mol.
